Data as given in ChEMBL document CHEMBL5113536, “Triphosphate Prodrugs of the Anti-HIV-Active Compound 3'-Deoxy-3'-fluorothymidine (FLT)” (J Med Chem, 2022).
Calls of active or inactive are those of the source. The rule behind the calls is not given here.

Key:
[1] = Chemical stability in PBS buffer assessed half life measured after 24 hrs in presence of CEM/0 cell extract medium by RP-HPLC analysis relative to control; format: physicochemical; conditions: human, PBS buffer with CEM/0 cell extract
[2] = Chemical stability in PBS buffer assessed dephosphorylated half life measured after 24 hrs in presence of CEM/0 cell extract medium by RP-HPLC analysis relative to control; format: physicochemical; conditions: human, PBS buffer with CEM/0 cell extract
[3] = Metabolic stability of the compound in mouse liver extract assessed as compound remaining measured after 24 hrs in presence of mouse liver extract medium by RP-HPLC analysis relative to control; format: ADME, tissue-based; conditions: read-out: Stability
[4] = Metabolic stability of the compound in pig liver extract assessed as half life measured after 24 hrs in presence of pig liver extract medium by RP-HPLC analysis; format: ADME, tissue-based, Sus scrofa
[5] = Stability of the compound assessed as cleaved half life in presence of CEM/0 cell extract medium measured upto 25 hrs by RP-HPLC analysis; format: physicochemical; conditions: human
[6] = Stability in buffer assessed as pig liver esterase-mediated clevage of first masking group half life at pH 7.3 by RP-HPLC analysis; format: ADME, tissue-based
[7] = Stability in PBS buffer assessed as clevage of first masking group half life in at pH 7.3 in presence of CEM/0 cell extract medium by RP-HPLC analysis; format: physicochemical; conditions: human, PBS buffer with CEM/0 cell extract
[8] = test system: Human immunodeficiency virus; assay: Substrate activity at HIV reverse transcriptase assessed as DNA elongation using 5'-Cy3-CGTTG GTCCT GAAGG AGGAT AGG1T-3' as primer and 3'-GCAACCAGGACTTCCTCCTATCCAAAGACA-5' as template incubated at 37 degree C for 15 mins and at 80 degreeC for 3 mins in presence of TTP by primer extension assay; conditions: time 18.0 min
[9] = test system: Human immunodeficiency virus; assay: Substrate activity at HIV reverse transcriptase assessed as DNA elongation using 5'-Cy3-CGTTG GTCCT GAAGG AGGAT AGG1T-3' as primer and 3'-GCAACCAGGACTTCCTCCTATCCAAAGACA-5' as template incubated at 37 degree C for 15 mins and at 80 degreeC for 3 mins by primer extension assay; conditions: time 18.0 min
[10] = Metabolic stability of the compound in mouse liver extract assessed as hydrolysis half life measured after 24 hrs in presence of mouse liver extract medium by RP-HPLC analysis; format: ADME, tissue-based
[11] = target: DNA polymerase beta (Homo sapiens) (UniProt P06746); assay: Substrate activity at human DNA polymerase beta using 5'-Cy3-CGTTG GTCCT GAAGG AGGAT AGG1T-3' as primer and 3'-GCAACCAGGACTTCCTCCTATCCAAAGACA-5' as template incubated at 37 degree C for 60 mins and at 80 degreeC for 3 mins by primer extension assay; conditions: time 63.0 min
[12] = test system: Human immunodeficiency virus 1; assay: Antiviral activity against HIV1 HE strain infected in CEM/0 cells assessed as inhibition of HIV induced cytopathogenic effects; format: functional, organism-based; conditions: Human immunodeficiency virus 1, HE, CCRF-CEM
[13] = test system: Human immunodeficiency virus 2; assay: Antiviral activity against HIV2 ROD infected in CEM/0 cells assessed as inhibition of HIV induced cytopathogenic effects; format: functional, organism-based; conditions: Human immunodeficiency virus 2, ROD, CCRF-CEM
[14] = test system: Human immunodeficiency virus 2; assay: Antiviral activity against […] HIV2 ROD infected in CEM-TK(-) cells assessed as inhibition of HIV induced cytopathogenic effects; format: functional, organism-based; conditions: Human immunodeficiency virus 2, ROD
[15] = Cytotoxicity in human CEM/0 cells assessed as reduction in cell viability; format: toxicity, cell-based; conditions: CEM/0 cells (CCRF-CEM)

With `Cc1cn([C@H]2C[C@H](O)[C@@H](COP(=O)(O)OP(=O)(O)OP(=O)(O)O)O2)c(=O)[nH]c1=O` [DEOXYTHYMIDINE_TRIPHOSPHATE] the half-life [1] was 30 min and the half-life [2] was 25.8 min.
Compound `CCCCCCCCCCCCCCCCOP(=O)(O)OP(=O)(O)OP(=O)(O)OC[C@H]1O[C@@H](n2cc(C)c(=O)[nH]c2=O)C[C@@H]1F` has a remaining at 24 h [3] of 39%.
For `CCCCCCCCCCCCCCCCOP(=O)(OCc1ccc(OC(=O)CCC)cc1)OP(=O)(O)OP(=O)(O)OC[C@H]1O[C@@H](n2cc(C)c(=O)[nH]c2=O)C[C@@H]1F.N.N` (stereo partly drawn), the half-life [4] was 0.582 min and the half-life [5] was 144 min.
Work on `CCCCCCCCCC(=O)Oc1ccc(COP(=O)(OCc2ccc(OC(=O)CCCCCCCCC)cc2)OP(=O)([O-])OP(=O)([O-])OC[C@H]2O[C@@H](n3cc(C)c(=O)[nH]c3=O)C[C@@H]2F)cc1.[Na+].[Na+]` yielded a half-life [5] of 140 min, a half-life [6] of 3.16 min and a half-life [7] of 81 h.
With `Cc1cn([C@H]2C[C@H](F)[C@@H](COP(=O)(O)OP(=O)(O)OP(=O)(O)O)O2)c(=O)[nH]c1=O.N.N.N.N` the Activity [8] was “Active”, the Activity [9] was “Active” and the half-life [10] was 5.04 min. For the same compound, the half-life [1] was 30 min, the Activity [11] was “Active” and the half-life [2] was 25.8 min.
In the case of `Cc1cn([C@H]2C[C@H](F)[C@@H](CO)O2)c(=O)[nH]c1=O` [ALOVUDINE], the EC50 [12] is reported as 1.6 nM, the EC50 [13] is reported as 3.2 nM and the EC50 [14] is reported as 70000 nM. For the same compound, the CC50 [15] was > 100000 nM.
